Data: patent US11999742B2, “Substituted pyrrolo[1,2-b]pyridazines as anthelmintics” (BOEHRINGER INGELHEIM VETMEDICA GMBH, priority 2021, dated 2024)

Experiments:
[1] = test system: L4 stage larvae of Dirofilaria immitis; experiment: Motility of L4 stage Dirofilaria immitis larvae, 3 days, dose response; assay type: cell-based; details: 72 h, read-out: EC50, motility of L4 stage D. immitis, three days at 37° C., 5% CO2, vs DMSO control
[2] = test system: Haemonchus contortus L1 larvae; experiment: Haemonchus contortus larval development L1 to L3, 4 days, dose response; details: 96 h, read-out: EC50, development of H. contortus larvae from L1 to L3
From the text: Biological Example 2: Screening Method to Test Activity of Compounds Against Haemonchus contortus

[3] = test system: Microfilaria of Dirofilaria immitis; experiment: Motility of Dirofilaria immitis microfilariae in microtiter plate, 3 days, dose response; assay type: cell-based; details: 72 h, read-out: EC50, motility of D. immitis microfilaria, three days at 37° C., 5% CO2, vs DMSO control

SMILES | EC50 [1] | EC50 [2] | EC50 [3]
Cc1cc2c(C(C)(C)C)c(C(=O)N[C@H]3CCOc4ccccc43)cnn2c1-c1cc(F)cc(Cl)c1Cl [Compound A481, 4-tert-butyl-7-(2,3-dichloro-5-fluorophenyl)-N-[(4S)-3,4-dihydro-2H-1-benzopyran-4-yl]-6-methylpyrrolo[1,2-b]pyridazine-3-carboxamide] | < 10 nM | 10 to 100 nM | 10 to 100 nM
Cc1cc2c(C(C)C)c(C(=O)N[C@H]3CCOc4ccccc43)cnn2c1-c1cc(F)cc(F)c1F [Compound A513, N-[(4S)-3,4-dihydro-2H-1-benzopyran-4-yl]-6-methyl-4-(propan-2-yl)-7-(2,3,5-trifluorophenyl)pyrrolo[1,2-b]pyridazine-3-carboxamide] | < 10 nM | 10 to 100 nM | < 10 nM
Cc1cc2c(N3CC(F)(F)C3)c(C(=O)N[C@H]3CCOc4ccccc43)cnn2c1-c1cc(F)cc(Cl)c1Cl [Compound A504] | < 10 nM | 10 to 100 nM | < 10 nM
Cc1cc2c(C(C)(C)C)c(C(=O)N[C@H]3CCOc4ccccc43)cnn2c1N1C[C@H](C)C[C@H](C)C1 [Compound A528] | 10 to 100 nM | 100 to 1000 nM | 10 to 100 nM
Cc1cc2c(N3CC(C)(C)C3)c(C(=O)N[C@H]3CCOc4ccccc43)cnn2c1-c1cc(Cl)cc(Cl)c1Cl [Compound A563] | 1000 to 10000 nM | 1000 to 10000 nM | 1000 to 10000 nM
Cc1cc2c(C(C)(C)C)c(C(=O)N[C@H]3CCc4sc(Br)nc43)cnn2c1-c1cc(F)cc(Cl)c1Cl [Compound A536a] | 10 to 100 nM | 10 to 100 nM | < 10 nM
Cc1cc2c(C(C)(C)C)c(C(=O)N[C@H]3CCc4ncccc43)cnn2c1-c1cc(F)cc(Cl)c1Cl [Compound A559] | 10 to 100 nM | 10 to 100 nM | 10 to 100 nM
Cc1cc2c(N(C)C)c(C(=O)N[C@H]3CCOc4ccccc43)cnn2c1-c1cc(F)cc(Cl)c1Cl [Compound A493, 7-(2,3-dichloro-5-fluorophenyl)-N-[(4S)-3,4-dihydro-2H-1-benzopyran-4-yl]-4-(dimethylamino)-6-methylpyrrolo[1,2-b]pyridazine-3-carboxamide] | < 10 nM | < 10 nM | < 10 nM
CC(C)(C)c1c(C(=O)N[C@H]2CCOc3ccccc32)cnn2c(-c3c(F)cc(F)cc3F)c(Cl)cc12 [Compound A484] | < 10 nM | < 10 nM | < 10 nM
CC(C)(C)c1c(C(=O)N[C@H]2CCOc3ccccc32)cnn2c(-c3cc(Cl)cc(Cl)c3Cl)c(Cl)cc12 [Compound A522] | < 10 nM | < 10 nM | < 10 nM
O=C(N[C@H]1CCOc2ccccc21)c1cnn2c(-c3cc(F)cc(Cl)c3Cl)c(Cl)cc2c1N1CC(F)(F)C1 [Compound A507] | < 10 nM | < 10 nM | < 10 nM
Cc1cc2c(C(C)C)c(C(=O)NN3CCOc4ccccc43)cnn2c1-c1cc(F)cc(Cl)c1Cl [Compound A498] | < 10 nM | 10 to 100 nM | < 10 nM
Cc1cc2c(N3CCOCC3)c(C(=O)N[C@H]3CCOc4ccccc43)cnn2c1-c1cc(Cl)cc(Cl)c1Cl [Compound A501] | < 10 nM | 10 to 100 nM | < 10 nM
CC1(C)CN(c2c(C(=O)N[C@H]3CCOc4ccccc43)cnn3c(-c4cc(F)cc(Cl)c4Cl)c(Cl)cc23)C1 [Compound A567] | 100 to 1000 nM | 1000 to 10000 nM | 1000 to 10000 nM
CC(C)(C)c1c(C(=O)N[C@H]2CCOc3ccccc32)cnn2c(-c3c(Cl)cc(F)cc3Cl)c(Cl)cc12 [Compound A485] | < 10 nM | < 10 nM | < 10 nM
Cc1cc2c(C(C)(C)C)c(C(=O)NN3CCOc4ccccc43)cnn2c1-c1cc(F)cc(Cl)c1Cl [Compound A495] | < 10 nM | < 10 nM | < 10 nM
CC(C)(C)c1c(C(=O)N[C@H]2CCOc3ccccc32)cnn2c(-c3cc(F)cc(F)c3F)c(Cl)cc12 [Compound A486] | < 10 nM | < 10 nM | < 10 nM
CC(C)c1c(C(=O)N[C@H]2CCOc3ccccc32)cnn2c(-c3cc(F)cc(Cl)c3Cl)c(Cl)cc12 [Compound A523, 6-chloro-7-(2,3-dichloro-5-fluorophenyl)-N-[(4S)-3,4-dihydro-2H-1-benzopyran-4-yl]-4-(propan-2-yl)pyrrolo[1,2-b]pyridazine-3-carboxamide] | < 10 nM | < 10 nM | < 10 nM

SMILES | EC50 [1] | EC50 [2] | EC50 [3]
Cc1cc2c(N3CCOCC3)c(C(=O)N[C@H]3CCOc4ccccc43)cnn2c1-c1cc(Cl)cc(Cl)c1 [Compound A499] | < 10 nM | 10 to 100 nM | < 10 nM
CC(C)(C)c1c(C(=O)N[C@H]2CCOc3ccccc32)cnn2c(-c3cc(F)cc(Cl)c3Cl)c(Cl)cc12 [Compound A502, 4-tert-butyl-6-chloro-7-(2,3-dichloro-5-fluorophenyl)-N-[(4S)-3,4-dihydro-2H-1-benzopyran-4-yl]pyrrolo[1,2-b]pyridazine-3-carboxamide] | < 10 nM | < 10 nM | < 10 nM
CN(C)c1c(C(=O)N[C@H]2CCOc3ccccc32)cnn2c(-c3cc(F)cc(F)c3F)c(Cl)cc12 [Compound A474] | < 10 nM | 10 to 100 nM | < 10 nM
CC(C)(C)c1c(C(=O)N[C@H]2CCOc3ccccc32)cnn2c(-c3cc(Cl)cc(Cl)c3)c(C(F)(F)F)cc12 [Compound A483] | < 10 nM | 10 to 100 nM | 10 to 100 nM
Cc1cc2c(C(C)(C)C)c(C(=O)N[C@H]3CCOc4ccccc43)cnn2c1-c1c(F)cc(F)cc1F [Compound A476] | < 10 nM | 10 to 100 nM | 10 to 100 nM
CN(C)c1c(C(=O)N[C@H]2CCOc3ccccc32)cnn2c(-c3cc(F)cc(Cl)c3Cl)c(Cl)cc12 [Compound A478] | 100 to 1000 nM | 10 to 100 nM | 10 to 100 nM
CC(C)c1c(C(=O)NN2CCOc3ccccc32)cnn2c(-c3cc(F)cc(Cl)c3Cl)c(Cl)cc12 [Compound A496] | 10 to 100 nM | 10 to 100 nM | < 10 nM
CC(C)c1c(C(=O)N[C@H]2CCOc3ccccc32)cnn2c(-c3cc(Cl)cc(Cl)c3)c(F)cc12 [Compound A466] | 10 to 100 nM | 100 to 1000 nM | 10 to 100 nM
Cc1cc2c(C(C)(C)C)c(C(=O)N[C@H]3CCOc4ccccc43)cnn2c1N1CCCCC1 [Compound A524, 4-tert-butyl-N-[(4S)-3,4-dihydro-2H-1-benzopyran-4-yl]-6-methyl-7-(piperidin-1-yl)pyrrolo[1,2-b]pyridazine-3-carboxamide] | 100 to 1000 nM | 100 to 1000 nM | 100 to 1000 nM
CC(C)(C)c1c(C(=O)N[C@H]2CCOc3ccccc32)cnn2c(-c3cc(Cl)cc(Cl)c3)c(Cl)cc12 [Compound A477] | < 10 nM | 10 to 100 nM | < 10 nM
Cc1cc2c(C(C)(C)C)c(C(=O)N[C@H]3CCc4sccc43)cnn2c1-c1cc(F)cc(Cl)c1Cl [Compound A553] | < 10 nM | < 10 nM | < 10 nM
Cc1cc2c(C(C)(C)C)c(C(=O)N[C@H]3CCOc4ccccc43)cnn2c1-c1cc(F)cc(F)c1F [Compound A471] | < 10 nM | < 10 nM | < 10 nM
CC(C)(C)c1c(C(=O)NN2CCOc3ccccc32)cnn2c(-c3cc(F)cc(Cl)c3Cl)c(Cl)cc12 [Compound A494] | < 10 nM | 10 to 100 nM | 10 to 100 nM
CC(C)(C)c1c(C(=O)NN2CCOc3ccccc32)cnn2c(-c3cc(Cl)cc(Cl)c3)c(Cl)cc12 [Compound A516] | < 10 nM | 10 to 100 nM | < 10 nM
Cc1cc2c(C(C)(C)C)c(C(=O)N[C@H]3CCc4ccccc43)cnn2c1-c1cc(F)cc(Cl)c1Cl [Compound A558] | < 10 nM | < 10 nM | < 10 nM
O=C(N[C@H]1CCOc2ccccc21)c1cnn2c(-c3cc(Cl)cc(Cl)c3Cl)c(Cl)cc2c1N1CC(F)(F)C1 [Compound A506] | < 10 nM | 10 to 100 nM | < 10 nM
Cc1cc2c(C(C)(C)C)c(C(=O)N[C@H]3CCc4cccnc43)cnn2c1-c1cc(F)cc(Cl)c1Cl [Compound A544] | 100 to 1000 nM | 100 to 1000 nM | 10 to 100 nM
Cc1cc2c(C(C)(C)C)c(C(=O)N[C@H]3CCOc4ccccc43)cnn2c1-c1c(Cl)cc(F)cc1Cl [Compound A487] | < 10 nM | 10 to 100 nM | 10 to 100 nM
